Assay results as given in patent US12428666B2, “Compositions and methods related to kethoxal derivatives” (The University of Chicago, priority 2018, dated 2025).
Entries after “also recorded” stand apart in the source; their conditions may differ.

Assays:
guanine = assay: Reaction of N3-kethoxal with RNA nucleic bases and RNA oligos (HPLC, MALDI-TOF); assay type: biochemical
Method: The reaction of N3-kethoxal and RNA was generally performed with the following protocol: 100 pmol RNA oligo and 1 μmol N3-kethoxal was incubated in total 10 μL solution in PBS buffer at 37° C. for 10 mins. […] The purified labelled RNA can be used for further studies such as mass spectrometry, gel electrophoresis and copper-free click reaction with biotin-DBCO.
MALDI-TOF-MS analysis of N3-kethoxal labelled RNA oligo. […] Meanwhile the buffer exchange occurred from PBS buffer to tris buffer that can be directly used in MALDI-TOF-MS experiment without extra desalt step. One microliter of product solution was mixed with one microliter matrix which include 8:1 volume ratio of 2′4′6′-trihydroxyacetophenone (THAP, 10 mg/mL in 50% CH3CN/H2O):ammonium citrate (50 mg/mL in H2O). Then the mixture was spotted on the MALDI sample plate, dried and analyzed by Bruker Ultraflextreme MALDI-TOF-TOF Mass Spectrometers.
The product of N3-kethoxal with for RNA nucleic bases was analyzed using LC-6AD (Shimadzu, Japan) HPLC instrument, which equipped with an Inertsil ODS-SP column ([…], 250×4.6 mm) (GL Science Inc. Japan). The phase A (100 mM TEAA buffer, pH=7.0) and phase B (CH3CN) were used as eluents with a flow rate of 1 mL/min at 35° C. (B conc.: 5-5-30%/0-5-30 min).

RNA of mouse ES cells = assay: Keth-seq RT stop distribution; assay type: cell-based
Method: A library was prepared following icSHAPE protocol with slight changes (Spitale et al., Nature 519:486-90, 2015). The detailed protocol is described below. For in vitro library preparation, RNA was isolated and refolded in RNA folding mix buffer firstly (100 mM HEPES, pH 8.0, 100 mM NaCl, 10 mM MgCl2). The refolded RNA was treated with N3-kethoxal and then utilized for library construction. For in vivo study, N3-kethoxal was added into the cultural medium of mES cell and the RNA was isolated to be utilized for library construction.
Sequencing data processing. As the library structure is similar to icSHAPE technique, a similar strategy was used to preprocess the sequencing reads. Pipeline from icSHAPE protocol was used to conduct the data analysis, all the scripts can be accessed at URL github.com/qczhang/icSHAPE. Firstly, script readCollapse.pl was used to collapse the reads with default parameter. […] Enriched reactivity for each transcript was calculated by comparing kethoxal sample (foreground) versus control sample (background) using script calcEnrich.pl (-w factor5:scaling1 -x 0.25). […]

[1] = tested on: living mouse embryonic stem cells (mESCs); assay: In vivo labeling of living mES cells, dot blot of isolated biotinylated RNA; assay type: cell-based
Method: In vivo study: 10 μL N3-kethoxal was added into the cell culture medium in 100 mm cell culture dish with nearly 80% confluent mES cells. After incubation at 37° C. in CO2 incubator for a specific time, the medium was aspirated and the cells were washed three times by PBS. The total RNA was isolated by Trizol™ reagent (Invitrogen, 15596026) or Qiagen RNeasy™ plus mini kit (Qiagen, 74134). mRNA was isolated by Dynabeads™ mRNA DIRECT™ Purification Kit (Invitrogen, 61011). The biotinylation step was same as in vitro study. The biotinylated RNA was purified by RNA clean & concentrator.
Dot blot assay: one microliter RNA (100 ng/uL) sample was spotted onto the Amersham Hybond-N+ membrane (RPN119B, GE Healthcare) and UV crosslinked to the membrane by UVP HL-2000 hybriLinker. The membrane was washed using 1×PBST (0.1% tween-20) and blocked with 5% nonfat dry milk in 1×PBST overnight at 4° C. After four times wash using 1×PBST with ten-minute interval, the streptavidin-horseradish peroxidase (1:15000 dilution, streptavidin-HRP, Life Technologies, S-911) in 1×PBST with 3% BSA was added and incubated at room temperature for 40 mins. Then then membrane was washed using 1×PBST with ten-minute interval again and developed by SuperSignal™ West Pico PLUS Chemiluminescent Substrate (Thermo Scientific, 34577). The membrane was washed by 1×PBST again and stained by methylene blue solution (0.02% methylene blue in 0.3 M sodium Acetate pH 5.2).

N3-kethoxal labelled RNA [2] = assay: Reversibility of N3-kethoxal labelled RNA with excess GTP (MALDI-TOF, dot blot); assay type: physicochemical; conditions: for time for almost complete removal of N3-kethoxal modification on labeled RNA: excessive GTP (50 mM)
Method: Removal N3-kethoxal modification from N3-kethoxal labelled RNA. The detailed protocol of N3-kethoxal modification erasing is described below “N3-kethoxal-remove sample preparation” in the keth-seq protocol. Generally, the purified N3-kethoxal modified RNA was incubated with high concentration of GTP (½ volume of the reaction solution, final concentration 50 mM) at 37° C. for 6 hours or at 95° C. for 10 mins. Higher temperature benefits the removal the N3-kethoxal modification.

N3-kethoxal labelled RNA [3] = assay: Fixation of N3-kethoxal modification in RNA by borate buffer; assay type: physicochemical; conditions: final concentration 50 mM
Method: Fixation of N3-kethoxal modification in RNA. The labile N3-kethoxal modification in RNA can be fixed in the presence of borate buffer. The solution of N3-kethoxal labelled RNA was mixed with 1/10 volume of stock borate buffer (final concentration: 50 mM; stock borate buffer: 500 mM potassium borate, pH 7.0, pH was monitored while adding potassium hydroxide pellets to 500 mM boric acid). The borate buffer fixation was used in various steps of keth-seq protocol, see below.

[4] = tested on: single-strand RNA (ssRNA); assay: Selectivity of N3-kethoxal to ssRNA by denaturing gel electrophoresis; assay type: biochemical
From the text: The complementary RNA oligoes FS1 (5'-[…] NO:1, Fluorescent RNA oligo) and […]

[5] = tested on: RNA G-quadruplexes (rG4) in HeLa cell; assay: Keth-seq of rG4 regions with or without PDS treatment; assay type: cell-based, human; conditions: HeLa cell mRNA, 105 regions
Method: The characterization of RNA G-quadruplexes (rG4) in vivo remains challenging. Because of its high specificity towards guanine, the rG4 structure is a good object of N3-kethoxal to probe. It has been reported that PDS treatment can induce the formation of rG4 inside cells based on immunofluorescence imaging. Keth-seq was tested for the ability to identify rG4 structures induced by PDS inside cells. Keth-seq libraries were prepared using mRNA isolated from HeLa cell with or without PDS treatment. Previously identified rG4 structure regions (n=13,423 from in vitro probing) were analyzed in the Keth-seq data, and detected hundreds of regions with potential secondary structure (FIG. 14d). […] As the regions that form rG4 in vivo are more […], their structures were compared in terms of GINI index. […] Two examples were included where the signal in the defined rG4 regions in the PDS sample is lower than that in the control sample (FIG. 7f).

[6] = 50 mM GTP, neutral buffer, 37° C., MALDI-TOF

Compound | labelling of RNA oligo (MALDI-TOF molecular weight of product) (guanine; 12 mer RNA oligo with 4 guanines) | reaction with four RNA nucleic bases (HPLC) (guanine; G, A, C, U) | labeling activity compared with SHAPE reagent NAI (guanine; RNA oligo) | guanine share of RT-stopped sites among all reads (RNA of mouse ES cells; N3-kethoxal sample) [%] | G-stop sites with treatment time (keth-seq) (RNA of mouse ES cells; mES cell, 1 min vs 5 mins treatment) | cell permeability ([1]; added directly to culture medium of living cells) | time to label DNA and RNA in living cells ([1]; living cells) [min] | dot blot signal saturation with incubation time ([1]; mESCs, 1, 5, 10, 15, 20 mins) | N3-kethoxal modification in mRNA after 10 mins incubation (N3-kethoxal labelled RNA [2]; 50 mM GTP, 95° C., dot blot) | kethoxal modification after 2 h incubation (N3-kethoxal labelled RNA [2]; [6]) | kethoxal modification after 6 h incubation (N3-kethoxal labelled RNA [2]; [6]) | time for almost complete removal of N3-kethoxal modification on labeled RNA (N3-kethoxal labelled RNA [2]; 37° C.) [h] | time for almost complete removal of N3-kethoxal modification on labeled RNA (N3-kethoxal labelled RNA [2]; 95° C.) [h] | stability of N3-kethoxal labeled RNA in borate buffer (N3-kethoxal labelled RNA [3]) | gel shift on double-stranded RNA after incubation ([4]; double-stranded RNA) | gel shift on single-stranded RNA after incubation ([4]; single-stranded RNA) | GINI index of known rG4 regions vs control sample [5]
CC(OCCN=[N+]=[N-])C(=O)C(O)O (centres unmarked) [N3-kethoxal, 3-(2-azidoethoxy)-1,1-dihydroxybutan-2-one] | all guanines (4 guanines) were modified | can only react with guanine (G) and was inert with A, C, and U | higher labeling activity | > 80 | G-stop sites were increased from 1 min to 5 mins | highly cell-permeable; also recorded: could permeate the living cell efficiently even during one-minute incubation; also recorded: excellent cell permeability | ≤ 5 | saturated within five minutes | removed thoroughly | largely removed | almost removed | ≤ 6 | ≤ 0.167 | stabilized in borate buffer | no such shift was detected | a shift was observed | 
NCCOc1cc(C(=O)Nc2cc(OCCN)c3ccccc3n2)nc(C(=O)Nc2cc(OCCN)c3ccccc3n2)c1 [PDS] |  |  |  |  |  |  |  |  |  |  |  |  |  |  |  |  | higher GINI index than the control sample
